According to ChEMBL document CHEMBL1201862, “PubChem BioAssay data set” (2004):
Activity calls are given as the source filed them.

Assays:
[1] = molecular target: Envelope glycoprotein gp160 (Human immunodeficiency virus 1, UniProt Q6QLK5); assay: inhibitors of HIV fusion peptide binding, primary screen, biochemical, uHTS, fluorescence dequenching (AID 1986)
[2] = Luminescence Cell-Based Dose Confirmation HTS to Identify Activators of 5'UTR Stem-Loop Driven Alpha-Synuclein mRNA Translation in H4 Neuroglioblastoma Cells. [Related pubchem assays: 1829 (Project Summary), 1814 (Primary HTS)]; format: functional
[3] = Luminescence Cell-Based Dose Response HTS to Identify Activators of Luciferase Translation or Activity in H4 […] Cells. [Related pubchem assays: 1829 (Project Summary), 1814 (Primary HTS)]; format: functional
H4 = assay: Luminescence Cell-Based Dose Response HTS to Identify Activators of 5'UTR Stem-Loop Driven Prion Protein mRNA Translation in H4 Neuroglioblastoma Cells. [Related pubchem assays: 1829 (Project Summary), 1814 (Primary HTS)]; format: functional; details: Homo sapiens
[4] = molecular target: T1, Corticotropin-releasing factor receptor 2/Corticotropin-releasing factor-binding protein (Homo sapiens, UniProt P24387+Q13324); assay: Dose Response confirmation of uHTS hits for small molecule antagonists of the CRF-binding protein and CRF-R2 receptor complex.; format: functional; details: read-out: IC50_Mean
T1 sequence (Q13324 whole entry): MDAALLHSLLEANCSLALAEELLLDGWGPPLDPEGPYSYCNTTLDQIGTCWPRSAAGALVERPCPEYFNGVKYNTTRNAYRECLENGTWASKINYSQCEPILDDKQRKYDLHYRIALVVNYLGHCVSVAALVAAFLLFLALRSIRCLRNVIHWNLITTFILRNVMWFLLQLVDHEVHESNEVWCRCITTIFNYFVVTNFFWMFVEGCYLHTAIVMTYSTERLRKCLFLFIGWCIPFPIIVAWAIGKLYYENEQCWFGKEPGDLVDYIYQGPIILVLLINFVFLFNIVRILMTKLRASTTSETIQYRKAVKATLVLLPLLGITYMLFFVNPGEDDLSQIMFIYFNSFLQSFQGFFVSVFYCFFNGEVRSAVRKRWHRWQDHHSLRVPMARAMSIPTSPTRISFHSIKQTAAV
T1 sequence (P24387 whole entry): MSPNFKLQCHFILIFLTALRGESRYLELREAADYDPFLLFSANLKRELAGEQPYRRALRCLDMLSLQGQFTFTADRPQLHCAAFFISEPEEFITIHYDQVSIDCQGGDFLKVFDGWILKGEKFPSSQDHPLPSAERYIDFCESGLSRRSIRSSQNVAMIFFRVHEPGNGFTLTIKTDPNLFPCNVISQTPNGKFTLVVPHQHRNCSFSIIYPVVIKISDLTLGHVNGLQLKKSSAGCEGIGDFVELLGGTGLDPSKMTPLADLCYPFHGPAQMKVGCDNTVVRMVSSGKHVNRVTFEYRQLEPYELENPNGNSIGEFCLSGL

[5] = molecular target: T1, Corticotropin-releasing factor receptor 2/Corticotropin-releasing factor-binding protein; assay: activators of CRF receptor 2 with binding protein – uHTS hits, confirmation (AID 602473); format: functional; details: read-out: EC50_Mean
[6] = CRF-BP/CRF-R2 complex antagonists, dose response, cell-based, uHTS hits, 384-well (AID 651639); format: functional, Homo sapiens; details: read-out: IC50_Mean
[7] = molecular target: NACHT, LRR and PYD domains-containing protein 3 (Homo sapiens, UniProt Q96P20); assay: NALP3 inhibitors in yeast, dose response, luminescent (AID 488799); format: functional
[8] = molecular target: T2, Mannose-6-phosphate isomerase (Homo sapiens, UniProt P34949); assay: PMI enzyme inhibitors, confirmation, biochemical, fluorescence intensity (AID 1535)
T2 sequence (P34949 whole entry): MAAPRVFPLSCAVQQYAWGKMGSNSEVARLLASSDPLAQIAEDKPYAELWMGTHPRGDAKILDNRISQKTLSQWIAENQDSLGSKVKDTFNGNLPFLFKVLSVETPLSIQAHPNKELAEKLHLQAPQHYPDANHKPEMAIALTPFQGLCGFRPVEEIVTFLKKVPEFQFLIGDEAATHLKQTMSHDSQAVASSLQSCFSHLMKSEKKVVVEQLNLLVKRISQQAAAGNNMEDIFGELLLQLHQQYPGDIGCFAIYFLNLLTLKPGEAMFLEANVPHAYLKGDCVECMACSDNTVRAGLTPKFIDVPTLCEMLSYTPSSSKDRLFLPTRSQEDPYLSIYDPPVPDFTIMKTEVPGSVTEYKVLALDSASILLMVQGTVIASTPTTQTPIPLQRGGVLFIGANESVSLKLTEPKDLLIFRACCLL

Phosphomannomutase 2 = Phosphomannomutase 2 (Homo sapiens, UniProt O15305); assay: Counter screen SAR assay for PMM2 inhibitors via a fluorescence intensity assay. [Related pubchem assays (depositor defined):AID1545, AID1574]
Chain of Phosphomannomutase 2 (O15305 whole entry): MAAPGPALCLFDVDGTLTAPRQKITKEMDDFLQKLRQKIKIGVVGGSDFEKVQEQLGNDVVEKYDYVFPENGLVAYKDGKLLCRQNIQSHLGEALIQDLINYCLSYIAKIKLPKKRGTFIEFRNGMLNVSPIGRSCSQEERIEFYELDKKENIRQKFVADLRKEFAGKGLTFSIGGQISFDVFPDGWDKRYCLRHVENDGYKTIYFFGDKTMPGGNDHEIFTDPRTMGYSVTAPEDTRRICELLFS

[9] = molecular target: Phosphoethanolamine/phosphocholine phosphatase (Homo sapiens, UniProt Q8TCT1); assay: SAR assay for compounds that inhibit PHOSPHO1. [Related pubchem assays (depositor defined):AID1545, AID1565, AID1574]
Chain of Phosphoethanolamine/phosphocholine phosphatase (Q8TCT1 whole entry): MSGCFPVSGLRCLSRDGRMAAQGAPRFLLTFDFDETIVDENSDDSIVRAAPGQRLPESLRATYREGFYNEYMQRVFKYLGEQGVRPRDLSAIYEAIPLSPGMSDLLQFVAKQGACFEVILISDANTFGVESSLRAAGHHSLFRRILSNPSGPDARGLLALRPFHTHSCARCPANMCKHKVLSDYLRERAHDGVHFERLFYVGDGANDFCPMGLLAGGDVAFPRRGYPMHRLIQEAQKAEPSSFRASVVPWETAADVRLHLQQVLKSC

[10] = molecular target: Eukaryotic translation initiation factor 4E (Mus musculus, UniProt P63073); assay: eIF4E–eIF4G protein interaction inhibitors, dose response, biochemical, TR-FRET (AID 855); format: functional;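 further: potency for disrupting eIF4E binding to eIF4GI seen as loss of FRET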
Chain of Eukaryotic translation initiation factor 4E (P63073 whole entry): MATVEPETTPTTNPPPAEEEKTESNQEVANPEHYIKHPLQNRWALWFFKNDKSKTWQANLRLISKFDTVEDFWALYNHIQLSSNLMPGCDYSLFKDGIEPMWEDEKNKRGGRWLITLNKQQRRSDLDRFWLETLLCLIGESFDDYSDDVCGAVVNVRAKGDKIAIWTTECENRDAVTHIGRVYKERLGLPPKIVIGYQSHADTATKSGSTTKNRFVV

[11] = molecular target: Melanin-concentrating hormone receptor 1 (Homo sapiens, UniProt Q99705); assay: Late-stage fluorescence-based counterscreen for antagonists of the G-protein coupled receptor 7 (GPR7): cell-based dose response assay to identify antagonists of the melanin-concentrating hormone receptor 1 (MCHR1). [Related pubchem assays (depositor defined):AID1861, AID1880, AID1952, AID2148, AID2251, AID2257, AID485339]; format: functional;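 further: stimulated with 30 nM MCH peptide agonist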
Chain of Melanin-concentrating hormone receptor 1 (Q99705 whole entry): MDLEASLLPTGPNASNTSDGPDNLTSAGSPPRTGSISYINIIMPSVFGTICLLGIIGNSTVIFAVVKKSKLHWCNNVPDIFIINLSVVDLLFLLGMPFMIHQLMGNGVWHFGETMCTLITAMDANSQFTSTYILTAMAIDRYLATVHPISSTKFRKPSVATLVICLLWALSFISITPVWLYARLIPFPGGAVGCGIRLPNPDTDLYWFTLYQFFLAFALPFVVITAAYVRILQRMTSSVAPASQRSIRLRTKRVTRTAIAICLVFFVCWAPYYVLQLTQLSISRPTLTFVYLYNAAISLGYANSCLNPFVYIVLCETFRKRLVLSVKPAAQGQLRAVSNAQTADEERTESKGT

[12] = molecular target: T3, Neuropeptides B/W receptor type 1 (Homo sapiens, UniProt P48145); assay: GPR7 antagonist potency, late-stage follow-up, cell-based, fluorescence, dose response (AID 463251); format: functional
T3 sequence (P48145 whole entry): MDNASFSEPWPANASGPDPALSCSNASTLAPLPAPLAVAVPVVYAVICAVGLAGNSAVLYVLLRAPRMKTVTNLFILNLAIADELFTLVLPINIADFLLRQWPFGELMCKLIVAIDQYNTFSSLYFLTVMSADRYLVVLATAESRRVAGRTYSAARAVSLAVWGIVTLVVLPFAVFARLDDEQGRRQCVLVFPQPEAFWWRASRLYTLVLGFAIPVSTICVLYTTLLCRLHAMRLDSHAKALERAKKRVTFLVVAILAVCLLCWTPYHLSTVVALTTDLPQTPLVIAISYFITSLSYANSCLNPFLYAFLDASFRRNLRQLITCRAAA

[13] = molecular target: T4, Voltage-gated N-type calcium channel alpha-1B subunit/Amyloid beta A4 precursor protein-binding family A member 1 (Homo sapiens, UniProt Q00975+Q02410); assay: disruptors of Mint-PDZ/N-type channel peptide interaction – biochemical, HTRF, set 2, SAR follow-up (AID 434980); format: functional
T4 sequence (Q00975 whole entry): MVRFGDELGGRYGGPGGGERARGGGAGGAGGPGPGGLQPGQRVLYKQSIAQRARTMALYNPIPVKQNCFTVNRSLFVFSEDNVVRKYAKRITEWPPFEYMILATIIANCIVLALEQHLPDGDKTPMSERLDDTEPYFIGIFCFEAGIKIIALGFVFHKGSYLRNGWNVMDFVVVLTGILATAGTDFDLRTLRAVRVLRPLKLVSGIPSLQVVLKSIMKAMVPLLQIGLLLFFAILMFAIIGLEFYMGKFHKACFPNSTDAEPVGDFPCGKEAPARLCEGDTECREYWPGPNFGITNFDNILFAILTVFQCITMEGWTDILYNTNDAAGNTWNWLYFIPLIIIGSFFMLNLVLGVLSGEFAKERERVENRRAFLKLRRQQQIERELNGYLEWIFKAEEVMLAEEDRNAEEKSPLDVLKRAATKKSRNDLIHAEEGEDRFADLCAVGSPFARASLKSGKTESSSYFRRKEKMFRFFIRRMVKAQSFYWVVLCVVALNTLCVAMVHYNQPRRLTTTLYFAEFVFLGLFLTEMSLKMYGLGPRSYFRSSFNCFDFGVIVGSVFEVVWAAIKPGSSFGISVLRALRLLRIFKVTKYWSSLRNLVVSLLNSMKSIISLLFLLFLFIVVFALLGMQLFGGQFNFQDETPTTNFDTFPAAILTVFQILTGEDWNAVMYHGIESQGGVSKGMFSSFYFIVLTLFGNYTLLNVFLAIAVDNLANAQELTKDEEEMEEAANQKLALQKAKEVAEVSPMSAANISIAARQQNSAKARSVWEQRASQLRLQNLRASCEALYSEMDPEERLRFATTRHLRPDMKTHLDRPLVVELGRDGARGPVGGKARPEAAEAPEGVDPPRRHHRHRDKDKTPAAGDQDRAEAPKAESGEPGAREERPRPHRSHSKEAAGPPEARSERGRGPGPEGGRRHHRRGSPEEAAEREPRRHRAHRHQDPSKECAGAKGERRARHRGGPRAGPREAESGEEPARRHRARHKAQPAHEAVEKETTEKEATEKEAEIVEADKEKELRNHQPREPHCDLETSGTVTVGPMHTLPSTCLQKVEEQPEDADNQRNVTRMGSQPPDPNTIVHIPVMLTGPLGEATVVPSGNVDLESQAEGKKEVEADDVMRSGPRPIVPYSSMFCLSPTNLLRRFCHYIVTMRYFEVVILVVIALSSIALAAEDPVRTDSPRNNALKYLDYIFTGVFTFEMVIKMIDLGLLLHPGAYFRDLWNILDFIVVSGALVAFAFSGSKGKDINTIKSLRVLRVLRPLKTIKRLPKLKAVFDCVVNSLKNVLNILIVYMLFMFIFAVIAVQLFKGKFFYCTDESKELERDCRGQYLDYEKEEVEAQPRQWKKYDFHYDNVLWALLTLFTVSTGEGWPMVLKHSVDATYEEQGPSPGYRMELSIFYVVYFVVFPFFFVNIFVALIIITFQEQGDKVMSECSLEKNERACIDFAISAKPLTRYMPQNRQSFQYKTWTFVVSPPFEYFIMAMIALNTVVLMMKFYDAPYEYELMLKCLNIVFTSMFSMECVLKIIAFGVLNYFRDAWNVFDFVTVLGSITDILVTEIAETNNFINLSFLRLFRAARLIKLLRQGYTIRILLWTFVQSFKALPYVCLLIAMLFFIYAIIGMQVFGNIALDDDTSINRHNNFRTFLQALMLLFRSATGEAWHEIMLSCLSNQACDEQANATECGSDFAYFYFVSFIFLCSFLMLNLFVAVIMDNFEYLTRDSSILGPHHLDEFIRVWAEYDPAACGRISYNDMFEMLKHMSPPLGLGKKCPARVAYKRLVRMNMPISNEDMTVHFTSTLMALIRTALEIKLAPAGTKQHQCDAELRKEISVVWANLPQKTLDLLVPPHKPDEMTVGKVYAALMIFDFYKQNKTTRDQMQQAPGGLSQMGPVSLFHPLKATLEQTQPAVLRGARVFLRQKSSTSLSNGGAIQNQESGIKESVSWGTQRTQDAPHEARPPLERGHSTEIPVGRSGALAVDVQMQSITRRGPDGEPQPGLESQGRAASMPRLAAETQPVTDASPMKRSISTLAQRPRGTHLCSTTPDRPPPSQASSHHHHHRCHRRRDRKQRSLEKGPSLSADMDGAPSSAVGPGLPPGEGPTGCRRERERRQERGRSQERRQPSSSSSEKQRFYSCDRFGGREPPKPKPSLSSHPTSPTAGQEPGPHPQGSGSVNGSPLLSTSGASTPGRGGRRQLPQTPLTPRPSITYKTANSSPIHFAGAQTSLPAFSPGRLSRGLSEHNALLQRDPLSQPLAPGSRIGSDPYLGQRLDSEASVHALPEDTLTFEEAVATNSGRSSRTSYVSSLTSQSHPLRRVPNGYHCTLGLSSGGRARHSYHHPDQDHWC
T4 sequence (Q02410 whole entry): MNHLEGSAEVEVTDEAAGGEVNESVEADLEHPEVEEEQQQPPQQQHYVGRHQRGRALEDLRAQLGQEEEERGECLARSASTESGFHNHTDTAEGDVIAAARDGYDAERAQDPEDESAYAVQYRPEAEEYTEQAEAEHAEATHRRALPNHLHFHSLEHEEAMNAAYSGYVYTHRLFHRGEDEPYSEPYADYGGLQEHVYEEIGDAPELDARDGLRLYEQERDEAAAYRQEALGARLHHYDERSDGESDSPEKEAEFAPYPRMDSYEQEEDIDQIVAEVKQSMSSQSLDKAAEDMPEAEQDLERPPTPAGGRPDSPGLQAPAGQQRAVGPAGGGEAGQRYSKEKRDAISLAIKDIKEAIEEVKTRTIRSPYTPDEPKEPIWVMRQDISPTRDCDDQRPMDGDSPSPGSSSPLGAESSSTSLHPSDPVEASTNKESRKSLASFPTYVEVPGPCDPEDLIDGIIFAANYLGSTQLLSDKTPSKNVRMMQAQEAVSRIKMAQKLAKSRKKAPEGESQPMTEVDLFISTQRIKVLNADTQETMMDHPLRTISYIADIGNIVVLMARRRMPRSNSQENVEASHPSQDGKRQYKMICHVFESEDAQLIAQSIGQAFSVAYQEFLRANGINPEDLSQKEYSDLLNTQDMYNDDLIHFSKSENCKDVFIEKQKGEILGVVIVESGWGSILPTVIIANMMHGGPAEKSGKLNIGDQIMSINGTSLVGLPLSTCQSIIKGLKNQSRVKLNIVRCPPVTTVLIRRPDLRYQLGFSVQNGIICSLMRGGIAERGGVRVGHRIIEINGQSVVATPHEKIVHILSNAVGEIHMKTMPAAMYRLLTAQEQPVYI

[14] = molecular target: T4, Voltage-gated N-type calcium channel alpha-1B subunit/Amyloid beta A4 precursor protein-binding family A member 1; assay: disruptors of Mint-PDZ/N-type channel peptide interaction – biochemical, HTRF, SAR follow-up (AID 2489); format: functional
[15] = NIH-3T3 fibroblast cytotoxicity, dose response, cytotoxicity control, cell-based, fluorescence, Alamar Blue, secondary assay (AID 2327); format: functional;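 further: NIH-3T3 mouse fibroblasts cultured with fluconazole at 8 µg/mL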
Bcl-2-like protein 10 = molecular target: T5, Bcl-2-like protein 10 (Homo sapiens, UniProt Q9HD36); assay: displacers of TR3 peptide from Bcl-B, primary screen, selectivity assay for Bfl-1 inhibitor project, biochemical, fluorescence polarization, FITC-TR3 peptide (AID 748);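 further: fluorescence polarization from a fluorescein-labelled TR3 peptide binding purified Bcl-B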
T5 sequence (Q9HD36 whole entry): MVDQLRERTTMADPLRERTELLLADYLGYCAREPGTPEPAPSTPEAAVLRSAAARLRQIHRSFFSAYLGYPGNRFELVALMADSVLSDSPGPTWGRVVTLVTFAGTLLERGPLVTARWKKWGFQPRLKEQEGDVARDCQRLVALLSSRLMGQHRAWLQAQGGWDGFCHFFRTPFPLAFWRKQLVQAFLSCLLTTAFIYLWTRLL

[16] = C. albicans growth with fluconazole, confirmation, fluorescence, retest (AID 2467); format: functional, cell-based
[17] = molecular target: T6, Histone-lysine N-methyltransferase NSD2 (Homo sapiens, UniProt O96028); format: biochemical
T6 sequence (O96028 whole entry): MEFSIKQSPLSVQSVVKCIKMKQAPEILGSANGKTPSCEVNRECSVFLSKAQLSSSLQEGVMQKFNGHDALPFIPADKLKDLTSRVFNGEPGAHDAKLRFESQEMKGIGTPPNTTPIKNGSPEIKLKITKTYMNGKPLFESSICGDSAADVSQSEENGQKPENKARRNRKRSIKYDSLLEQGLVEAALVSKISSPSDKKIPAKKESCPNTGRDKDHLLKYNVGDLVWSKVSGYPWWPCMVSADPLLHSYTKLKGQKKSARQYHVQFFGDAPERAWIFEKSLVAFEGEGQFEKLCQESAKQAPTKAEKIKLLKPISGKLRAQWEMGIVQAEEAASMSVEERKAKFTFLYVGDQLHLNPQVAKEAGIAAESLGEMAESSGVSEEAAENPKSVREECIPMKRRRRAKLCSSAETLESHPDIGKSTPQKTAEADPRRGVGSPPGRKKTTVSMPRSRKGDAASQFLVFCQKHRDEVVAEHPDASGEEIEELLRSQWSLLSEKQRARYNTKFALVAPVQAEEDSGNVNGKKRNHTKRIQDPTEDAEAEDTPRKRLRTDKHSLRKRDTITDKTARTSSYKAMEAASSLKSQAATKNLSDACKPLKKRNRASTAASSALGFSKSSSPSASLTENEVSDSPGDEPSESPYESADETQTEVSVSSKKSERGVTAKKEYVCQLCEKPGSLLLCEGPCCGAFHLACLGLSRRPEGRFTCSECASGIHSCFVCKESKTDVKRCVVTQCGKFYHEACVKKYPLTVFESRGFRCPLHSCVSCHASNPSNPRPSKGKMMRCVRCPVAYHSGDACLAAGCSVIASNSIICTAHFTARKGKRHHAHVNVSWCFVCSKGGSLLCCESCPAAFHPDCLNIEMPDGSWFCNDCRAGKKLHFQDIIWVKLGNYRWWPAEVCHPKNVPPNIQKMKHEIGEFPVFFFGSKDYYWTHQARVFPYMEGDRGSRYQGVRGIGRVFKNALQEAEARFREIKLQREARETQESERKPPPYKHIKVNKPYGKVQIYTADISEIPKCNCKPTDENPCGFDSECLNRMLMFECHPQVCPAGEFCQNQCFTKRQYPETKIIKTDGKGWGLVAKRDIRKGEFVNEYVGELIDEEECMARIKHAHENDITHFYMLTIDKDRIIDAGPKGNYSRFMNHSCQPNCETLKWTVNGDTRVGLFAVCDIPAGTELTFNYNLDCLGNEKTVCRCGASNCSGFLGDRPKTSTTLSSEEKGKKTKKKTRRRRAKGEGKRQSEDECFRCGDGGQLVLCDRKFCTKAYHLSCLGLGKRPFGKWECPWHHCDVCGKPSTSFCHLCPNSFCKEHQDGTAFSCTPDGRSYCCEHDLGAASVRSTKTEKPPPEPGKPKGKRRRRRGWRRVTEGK

[18] = human group III sPLA2 inhibitors, dose response, biochemical, QFRET, IC50 (AID 743457);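 further: green fluorescence rise as the enzyme cleaves BODIPY PC-A2 in liposomes; potency for inhibition of the enzyme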
Protein Tat = molecular target: T7, Protein Tat (Human immunodeficiency virus type 1 group M subtype B (isolate HXB2)(HIV-1), UniProt P04608); format: functional;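 further: tat binding to TAR RNA read out by fluorescence polarization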
T7 sequence (P04608 whole entry): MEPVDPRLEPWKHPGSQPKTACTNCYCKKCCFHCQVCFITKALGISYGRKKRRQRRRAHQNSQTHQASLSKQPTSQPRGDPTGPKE

[19] = THP-1 cell cytotoxicity, dose response, cytotoxicity control for Vif-APOBEC3G degradation inhibitor project, THP-1 cells (AID 1117359); format: functional; details: Human immunodeficiency virus 1, THP-1

Chain of Envelope glycoprotein gp160 (Q6QLK5 whole entry, the tested form may be a part): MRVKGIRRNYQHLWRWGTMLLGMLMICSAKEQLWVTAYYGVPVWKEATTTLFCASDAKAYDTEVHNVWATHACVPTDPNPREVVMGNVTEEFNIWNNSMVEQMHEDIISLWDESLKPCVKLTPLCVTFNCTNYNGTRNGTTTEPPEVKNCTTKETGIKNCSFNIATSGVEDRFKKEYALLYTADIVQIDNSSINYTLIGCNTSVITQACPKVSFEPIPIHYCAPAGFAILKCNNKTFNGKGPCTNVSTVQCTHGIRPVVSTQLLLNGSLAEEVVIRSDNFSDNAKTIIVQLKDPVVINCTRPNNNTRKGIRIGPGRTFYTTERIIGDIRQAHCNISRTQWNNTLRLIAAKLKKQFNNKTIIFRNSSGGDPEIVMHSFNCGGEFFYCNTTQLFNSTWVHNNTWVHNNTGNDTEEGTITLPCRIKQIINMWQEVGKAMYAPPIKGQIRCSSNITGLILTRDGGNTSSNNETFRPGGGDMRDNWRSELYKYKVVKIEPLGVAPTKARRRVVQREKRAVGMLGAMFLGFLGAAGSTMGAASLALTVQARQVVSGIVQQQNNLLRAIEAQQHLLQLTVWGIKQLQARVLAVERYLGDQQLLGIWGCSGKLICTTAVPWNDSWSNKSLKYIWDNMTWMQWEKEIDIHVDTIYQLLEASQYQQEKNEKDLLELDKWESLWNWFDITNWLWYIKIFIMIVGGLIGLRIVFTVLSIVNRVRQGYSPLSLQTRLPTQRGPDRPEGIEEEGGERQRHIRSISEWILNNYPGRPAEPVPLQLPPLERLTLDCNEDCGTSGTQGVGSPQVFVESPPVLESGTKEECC

CCS(=O)(=O)C1=NSC2=NC(=O)/C(=C\c3cc(C)n(-c4cccc(OC)c4)c3C)C(=N)N21
IC50 [1]: > 99 µM (inactive)
EC50 [2]: > 120 µM (not active)
EC50 [3]: > 120 µM (not active)
EC50 (H4): > 120 µM (not active)
IC50 [4]: 5.1 µM (active)
EC50 [5]: > 53 µM (inactive)
IC50 [6]: 6.75 µM (active)

c1ccc(C2Nc3ccccc3C3OCCCC23)cc1 (stereo not drawn)
IC50 [7]: 7.36 µM (active)

O=c1c2c([N+](=O)[O-])cc([N+](=O)[O-])cc2sn1-c1ccc(Br)cc1
IC50 [8]: 12.2 µM (active)
IC50 (Phosphomannomutase 2): 10.8 µM (active)
IC50 [9]: 0.0725 µM (active)
IC50 [10]: 8.14 µM (active)

O=C(C1CCCCN1Cc1cccc(Cl)c1Cl)N1CCN(c2ccc([N+](=O)[O-])cc2)CC1 (stereo not drawn)
IC50 [11]: 3.3 µM (active)
IC50 [12]: 4.4 µM (active)

O=C(NC1CCC(c2ccccc2)CC1)c1cc(-c2ccco2)nc2ccccc12 (stereo not drawn)
IC50 [13]: 25.5 µM (active)
IC50 [14]: 5.59 µM (active)

N#C/C(C(N)=O)=c1/ccc2c(c1)N1C3=C(CCCC3)CC3CCCCC31N=2 (stereo not drawn)
EC50 [15]: 8.74 µM (inconclusive)
IC50 (Bcl-2-like protein 10): > 50 µM (inactive)
EC50 [16]: 4.01 µM (active)
AC50 [17]: 10.2 µM (active)
IC50 [18]: 72.7 µM (inactive)
IC50 (Protein Tat): > 100 µM (inconclusive)
CC50 [19]: 33.5 µM (active)
